The target in test [1] is Small ubiquitin-related modifier 1 (Homo sapiens, UniProt P63165). Kind of test: SUMO1 protein-protein binding blockers, potency – biochemical, FRET, dose response (AID 624383). It is filed as functional. The following applies: read-out: IC50_Mean.
In test [2] the target is Tyrosyl-DNA phosphodiesterase 2 (Homo sapiens, UniProt O95551). Kind of test: potency against TDP2 phosphodiesterase activity – biochemical, epi absorbance, IC50, dose response (AID 743297).
Test [3] has as its target T1, Sentrin-specific protease 7 (Homo sapiens, UniProt Q9BQF6).
T1 sequence (Q9BQF6 whole entry): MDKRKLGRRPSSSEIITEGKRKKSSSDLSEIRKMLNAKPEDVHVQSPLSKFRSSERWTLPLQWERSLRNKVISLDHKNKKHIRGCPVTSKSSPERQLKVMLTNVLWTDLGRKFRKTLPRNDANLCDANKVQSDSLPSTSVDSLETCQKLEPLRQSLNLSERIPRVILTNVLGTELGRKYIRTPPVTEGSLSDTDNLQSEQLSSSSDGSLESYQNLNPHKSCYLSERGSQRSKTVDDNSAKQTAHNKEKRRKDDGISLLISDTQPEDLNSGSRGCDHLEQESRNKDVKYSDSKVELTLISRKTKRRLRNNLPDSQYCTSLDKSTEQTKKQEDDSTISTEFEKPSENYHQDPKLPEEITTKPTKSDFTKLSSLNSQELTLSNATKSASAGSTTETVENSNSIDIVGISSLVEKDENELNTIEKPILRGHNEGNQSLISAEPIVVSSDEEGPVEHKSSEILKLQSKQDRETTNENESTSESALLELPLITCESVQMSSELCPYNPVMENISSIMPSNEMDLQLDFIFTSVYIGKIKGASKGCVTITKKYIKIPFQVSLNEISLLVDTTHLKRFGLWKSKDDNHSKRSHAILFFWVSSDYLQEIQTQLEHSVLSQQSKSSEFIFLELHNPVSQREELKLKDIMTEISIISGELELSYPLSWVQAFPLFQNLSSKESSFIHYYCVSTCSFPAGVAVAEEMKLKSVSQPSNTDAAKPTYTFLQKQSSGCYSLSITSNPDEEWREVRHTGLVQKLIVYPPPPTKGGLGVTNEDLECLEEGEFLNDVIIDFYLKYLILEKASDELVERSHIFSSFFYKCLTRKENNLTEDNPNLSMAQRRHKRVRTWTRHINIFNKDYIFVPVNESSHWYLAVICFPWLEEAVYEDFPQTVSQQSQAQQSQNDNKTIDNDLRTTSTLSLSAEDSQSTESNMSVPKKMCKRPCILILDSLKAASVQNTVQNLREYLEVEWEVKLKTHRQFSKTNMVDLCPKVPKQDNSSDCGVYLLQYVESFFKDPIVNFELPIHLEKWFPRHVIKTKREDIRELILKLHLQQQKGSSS
Kind of test: inhibition of human SENP7 cleavage activity – biochemical, luminescence, SAR follow-up (AID 504497). It is filed as functional.

Here are results for two compounds from ChEMBL document CHEMBL1201862, “PubChem BioAssay data set” (2004).

Molecules are shown by their SMILES. Calls of active or inactive are those of the source. Where only a bound is given, the exact number is not on record here.

Chain of Tyrosyl-DNA phosphodiesterase 2 (O95551 whole entry): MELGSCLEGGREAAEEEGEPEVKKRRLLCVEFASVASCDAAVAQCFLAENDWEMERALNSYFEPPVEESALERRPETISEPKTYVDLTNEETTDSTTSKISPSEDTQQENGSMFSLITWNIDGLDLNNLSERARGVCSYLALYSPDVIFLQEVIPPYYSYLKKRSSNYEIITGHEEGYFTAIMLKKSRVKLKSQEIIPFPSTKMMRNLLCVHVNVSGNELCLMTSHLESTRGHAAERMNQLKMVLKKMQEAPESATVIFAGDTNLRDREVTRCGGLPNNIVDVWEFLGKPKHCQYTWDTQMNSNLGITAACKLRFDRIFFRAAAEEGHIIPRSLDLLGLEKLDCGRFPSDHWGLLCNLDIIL
Chain of Small ubiquitin-related modifier 1 (P63165 whole entry): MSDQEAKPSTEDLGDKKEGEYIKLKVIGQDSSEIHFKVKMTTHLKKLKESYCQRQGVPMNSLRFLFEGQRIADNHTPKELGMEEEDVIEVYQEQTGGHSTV

As for `N#Cc1c(O)nc(SCC(=O)N2c3ccccc3Sc3ccccc32)nc1-c1ccccc1`, the IC50 in test [1] is 19.8 µM (active).
With `COc1cc(C(=O)c2nccc3cc(OC)c(OC)cc23)c([N+](=O)[O-])cc1OC`, the IC50 is > 128 µM (inactive) in test [2] and 24.6 µM (active) in test [3].
